Measured values as given in the Kinase Knowledgebase extract (Sharma et al. 2016).

Molecular target: MAPK14 (human) (UniProt Q16539)
Test: Inhibition of MAPK14 Kinase Activity

Chain of MAPK14 (human) (Q16539 whole entry, looked up): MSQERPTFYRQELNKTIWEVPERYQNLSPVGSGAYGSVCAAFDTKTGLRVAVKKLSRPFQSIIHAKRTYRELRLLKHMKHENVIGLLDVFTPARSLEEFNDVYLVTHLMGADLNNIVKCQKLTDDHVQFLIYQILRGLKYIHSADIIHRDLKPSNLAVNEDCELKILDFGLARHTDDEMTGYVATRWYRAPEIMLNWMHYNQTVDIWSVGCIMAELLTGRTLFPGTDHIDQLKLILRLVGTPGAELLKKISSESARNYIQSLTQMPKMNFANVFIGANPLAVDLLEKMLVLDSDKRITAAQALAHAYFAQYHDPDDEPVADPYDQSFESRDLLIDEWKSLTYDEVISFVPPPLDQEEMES

IC50 [nM] | SMILES
< 2000 | O=C(c1ccccc1)c1c(C(=O)N2CCC[C@H]2CO)sc2c1ccc(=O)n2-c1ccccc1
< 2000 | CN1CC[C@@H](Nc2sc3c(ccc(=O)n3-c3ccccc3)c2C(=O)c2ccccc2)C1
